Assay results as given in BindingDB's records for doi:10.1016/j.chembiol.2009.01.014 (Duke University Medical Center, 2009).

Legend:
[1] = molecular target: Protein farnesyltransferase subunit beta/geranylgeranyltransferase type-1 subunit alpha (Homo sapiens, UniProt P49354+P49356); assay: In Vitro PFT Activity Assay; conditions: pH 7.7; 30 °C
Method: In vitro inhibition assay of human PFT was done by measuring the incorporation of [3H] FPP (Amersham Biosciences, Piscataway, NJ) into wild type H-Ras (PFT). The 60,000g post-microsomal supernatant from Daudi cells was incubated in the presence of increasing concentration of compound, H-Ras substrate, and [3H] FPP. Samples were TCA-precipitated and then filtered onto glass fiber filters; unbound [3H] FPP was washed through the filters. Samples were counted on a scintillation counter and activity compared to vehicle controls to obtain IC50 values.

[2] = molecular target: Protein farnesyltransferase/geranylgeranyltransferase type-1 subunit alpha / Protein farnesyltransferase subunit beta (Plasmodium falciparum, UniProt Q5EI73+Q5EI74); assay: PfPFT IC50 Determination; conditions: pH 7.5; 37 °C
Chain of Protein farnesyltransferase/geranylgeranyltransferase type-1 subunit alpha / Protein farnesyltransferase subunit beta (Q5EI73 1-521): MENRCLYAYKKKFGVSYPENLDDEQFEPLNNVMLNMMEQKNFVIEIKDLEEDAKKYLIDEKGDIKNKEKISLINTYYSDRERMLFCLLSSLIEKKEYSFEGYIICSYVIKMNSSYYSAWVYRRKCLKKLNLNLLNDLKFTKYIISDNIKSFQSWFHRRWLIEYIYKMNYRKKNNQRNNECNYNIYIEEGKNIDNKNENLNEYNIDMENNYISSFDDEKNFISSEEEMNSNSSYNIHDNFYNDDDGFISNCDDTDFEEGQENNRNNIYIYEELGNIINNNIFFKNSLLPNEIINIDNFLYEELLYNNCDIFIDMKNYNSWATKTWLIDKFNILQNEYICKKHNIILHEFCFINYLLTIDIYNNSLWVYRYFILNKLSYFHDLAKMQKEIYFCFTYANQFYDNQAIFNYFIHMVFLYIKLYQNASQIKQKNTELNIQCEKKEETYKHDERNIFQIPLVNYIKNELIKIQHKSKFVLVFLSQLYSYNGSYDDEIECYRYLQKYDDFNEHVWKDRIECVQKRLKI
Chain of Protein farnesyltransferase/geranylgeranyltransferase type-1 subunit alpha / Protein farnesyltransferase subunit beta (Q5EI74 1-923): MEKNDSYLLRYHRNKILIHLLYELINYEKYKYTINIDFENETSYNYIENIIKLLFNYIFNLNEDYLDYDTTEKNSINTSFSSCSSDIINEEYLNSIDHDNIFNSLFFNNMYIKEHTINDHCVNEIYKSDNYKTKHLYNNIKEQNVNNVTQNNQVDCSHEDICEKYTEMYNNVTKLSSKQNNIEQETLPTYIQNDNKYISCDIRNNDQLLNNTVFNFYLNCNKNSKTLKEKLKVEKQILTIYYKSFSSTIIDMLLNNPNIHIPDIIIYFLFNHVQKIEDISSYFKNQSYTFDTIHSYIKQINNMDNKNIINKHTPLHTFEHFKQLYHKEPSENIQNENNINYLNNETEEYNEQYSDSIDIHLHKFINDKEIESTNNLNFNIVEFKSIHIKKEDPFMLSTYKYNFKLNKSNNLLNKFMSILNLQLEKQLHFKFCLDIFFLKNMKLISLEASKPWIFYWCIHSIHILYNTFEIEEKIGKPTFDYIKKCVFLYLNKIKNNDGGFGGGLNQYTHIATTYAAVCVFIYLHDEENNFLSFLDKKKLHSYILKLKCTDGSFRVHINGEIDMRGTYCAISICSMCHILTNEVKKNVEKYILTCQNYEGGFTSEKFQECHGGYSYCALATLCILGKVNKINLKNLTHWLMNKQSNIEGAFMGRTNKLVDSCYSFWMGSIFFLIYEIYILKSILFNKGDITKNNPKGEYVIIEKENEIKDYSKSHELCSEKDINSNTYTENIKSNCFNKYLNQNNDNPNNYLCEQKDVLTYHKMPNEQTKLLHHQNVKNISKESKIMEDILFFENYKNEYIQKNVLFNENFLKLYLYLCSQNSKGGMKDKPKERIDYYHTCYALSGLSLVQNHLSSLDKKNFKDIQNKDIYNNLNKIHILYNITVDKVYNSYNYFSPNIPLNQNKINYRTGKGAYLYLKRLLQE
Method: Assays for PfPFT activity were performed with a PFT-specific scintillation assay (SPA) kit (Amersham Biosciences, Piscataway, NJ). An amount of 1 uM biotinylated lamin B peptide was used. The concentration of [3H]farnesyl pyrophosphate (FPP) was increased beyond manufacturer recommendations to 1 uM. IC50 values were calculated using linear regression analysis of the plots of [3H]FPP prenylation versus concentration of compounds.

With `Cn1cnc(S(=O)(=O)N(CCN(Cc2cncn2C)c2ccc(C#N)cc2)Cc2ccccc2)c1` [1-Methyl-1H-imidazole-4-sulfonic Acid Benzyl-{2-[(4-cyanophenyl)-(3-methyl-3H-imidazol-4-ylmethyl)amino]ethyl}amide] the IC50 [1] was 56 nM.

`Cn1cncc1CN(CCN(CC1CCN(C(=O)OC(C)(C)C)CC1)S(=O)(=O)c1ccccc1-c1cccc(CCC(=O)O)c1)c1ccc(C#N)cc1` [ethylenediamine scaffold, 10] gave an IC50 [1] of 800 nM and an IC50 [2] of 70 nM.

Compound `Cn1cnc(S(=O)(=O)N(CCN(Cc2cncn2C)c2ccc(C#N)cc2)CC2CCN(C(=O)OC(C)(C)C)CC2)c1` [ethylenediamine scaffold, 4] has an IC50 [1] of 3700 nM and an IC50 [2] of 1.2 nM.

Work on `Cc1ccccc1S(=O)(=O)N(CCN(Cc1cncn1C)c1ccc(C#N)cc1)Cc1ccccc1` [ethylenediamine scaffold, 7] yielded an IC50 [1] of 160 nM and an IC50 [2] of 5 nM.

`Cc1ccccc1S(=O)(=O)N(CCN(Cc1cncn1C)c1ccc(C#N)cc1)CC1CCN(C(=O)OC(C)(C)C)CC1` [ethylenediamine scaffold, 5] was tested, and the IC50 [2] was 3 nM.
